According to patent publication US20130136772A1, “REGULATION OF IMMUNE RESPONSE BY COLOCYNTHIN AND/OR ITS DERIVATIVES” (priority 2010, published 2013):

Legend:
TNF-α [1] = test: Intracellular TNF-α estimation in LPS activated murine neutrophils by flowcytometry; type: cell-based; conditions: for Expression of intracellular TNF-alpha, Mean ± S.E: LPS 10 ng/ml, 3 h
Protocol: Flowcytometric studies were carried out to determine the anti-inflammatory effect of AD-B-63B on TNF-α cytokine expression in LPS activated murine neutrophils. Neutrophils play essential roles in host defence through their ability to clear bacterial infections. Their inappropriate activation contributes to a variety of inflammatory diseases, from the acute respiratory distress syndrome to asthma, chronic obstructive pulmonary disease and rheumatoid arthritis. TNF-α was chosen as the target for anti-inflammatory activity because of the fact that it is a pro-inflammatory cytokine and plays a major role in the pathogenesis of septic shock induced by LPS (Lipopolysaccharide) endotoxin injection [Remick, D. G.; Strieter, R. M.; Eskandari, M. K.; Nguyen, D. T.; Genord, M. A.; Raiford, C. L. Am. J. Path. 1990, 136, 49.]. LPS is an important triggering factor for in vivo systemic inflammatory response [Bone, R. C. Chest 1991, 100, 802]. LPS activates neutrophils via engagement of TLR4 (Toll-like receptor 4),[Sabroe, I.; Read, R. C.; Whyte, M. K. B.; Dockrell, D. H.; Vogel, S. N.; Dower, S. K. J. Immunol. 2003, 171, 1630.] resulting in the induction of a characteristic pro-inflammatory phenotype and prolongation of cell lifespan [Lee, A.; Whyte, M. K. B.; Haslett, C. J. Leukoc. Biol. 1993, 54, 283].
The anti-inflammatory activity of AD-B-63B was measured by the estimation of intracellular tumor necrosis factor alpha (TNF-α) expression in a gated population of neutrophils [Clara, B., R. C. Arancha, G. M. Andre's, P. Atanasio, A. Julia, and O. Alberto. 2003. A new method for detecting TNF-α-secreting cells using direct immunofluorescence surface membrane stainings. J. Immuno. Methods 264:77-87.]. Murine blood was subjected to centrifugation at 250× g for 20 min. Three layers were formed: an upper layer of platelet-rich plasma, a buffy coat middle layer and a lower layer formed of red blood cells. The middle layer was removed and subjected to Histopaque 1077 (Sigma) gradient separation. The upper layer containing neutrophils was removed and transferred to FACS tubes (Becton Dickinson). Lipopolysaccharide (LPS) derived from Escherichia coli (Sigma) was added at a concentration of 10 ng/ml for the stimulation of the cells. AD-B-63B was added at graded concentrations of 0.5, 1, 2.5, 5, 10 and 20 μg/ml. Samples were incubated for 3 h at 37° C. ( Table 1) Controls consisted of LPS-stimulated cells (LPS control). Further processing was done by the addition of FACS permeabilizing solution (Becton Dickinson), followed by the addition of phycoerythrin (PE)-labeled anti-mouse TNF-α. (Becton Dickinson). The cells were incubated in the dark, and after being washed with sterile PBS, samples were resuspended in PBS (pH 7.4) and acquired directly on the flow cytometer (FACS CANTO; Becton Dickinson). A fluorescence trigger was set on the […] parameter of the gated neutrophil populations (10,000 events). Rolipram at 100 μg/ml was used as standard inhibitor of TNF-α in this study. Fluorescence compensation, data analysis and data presentation were performed using software (Becton Dickinson) (FIG. 1) [Pandey A, Bani S, Kaul S, Sangawan P L; 2010, Selective Th1 upregulation by ethyl acetate fraction of Labisia pumila; 132 (2010) 309-315].

TNF-α [2] = test: In vivo TNF-α estimation in serum of LPS challenged mice; set-up: species or system balb/c mice; conditions: 1, 2.5, 5 and 10 mg/kg oral for 6 days, LPS 1 mg/kg i.v., serum 90 min after LPS
Protocol: Invivo experiments were carried out using balb/c mice that were orally administrated with graded oral doses of AD-B-63B (1, 2.5, 5 and 10 mg/kg) for 6 days and challenged with LPS. Nitric oxide (NO) is an important mediator of diverse physiologic and pathologic processes, including many inflammatory diseases [Abramson S B, Amin A R, Clancy R M, Attur M, (2001). The role of nitric oxide in tissue destruction. Best Practice & Research Clinical Rheumatology; 15: 831-845]. Several lines of evidence implicate NO in the pathogenesis of inflammation. For example, rodents in animal models of arthritis generate abundant quantities of NO, as reflected in high levels of serum and urinary NO that develop in association with disease manifestations [Stefanovic-Racic M, Meyers K, Meschter C, Coffey J W, Hoffman R A, Evans C H, (1994). Monomethyl arginine, an inhibitor of nitric oxide synthase, suppresses the development of adjuvant arthritis in rats. Arthritis & Rheumatism; 37: 1062-1069.] [McCartney-Francis N, Allen J B, Mizel D E, Albina J E, Xie Q W, Nathan C F, Wahl S M, (1993). Suppression of arthritis by an inhibitor of nitric oxide synthase. Journal of Experimental Medicine; 178: 749-754.] [Weinberg J B, (1998). […] TNF-α, IL-1 beta and Nitric oxide production was evaluated by a commercial ELISA kits (R&D Systems) in serum from AD-B-63B treated mice, 90 min after LPS injection.

## CC(=O)OC(C)(C)/C=C/C(=O)[C@](C)(O)[C@H]1[C@H](O)C[C@@]2(C)[C@@H]3CC=C4[C@@H](C=C(O[C@@H]5O[C@H](CO)[C@@H](O)[C@H](O)[C@H]5O)C(=O)C4(C)C)[C@]3(C)C(=O)C[C@]12C [AD-B-63B, 2-O-β-D-glucopyranosyl cucurbitacin E]
TNF-α [1]; 0.5 μg/ml
  % TNF-alpha inhibition against LPS control: 13.01↓ %
  Expression of intracellular TNF-alpha, Mean ± S.E: 2.34 ± 0.07
TNF-α [1]; 1.0 μg/ml
  % TNF-alpha inhibition against LPS control: 24.16↓ %
  Expression of intracellular TNF-alpha, Mean ± S.E: 2.04 ± 0.06
TNF-α [1]; 5.0 μg/ml
  % TNF-alpha inhibition against LPS control: 50.55%
  Expression of intracellular TNF-alpha, Mean ± S.E: 1.33 ± 0.06
TNF-α [1]; 10.0 μg/ml
  % TNF-alpha inhibition against LPS control: 60.59%
  Expression of intracellular TNF-alpha, Mean ± S.E: 1.06 ± 0.03
TNF-α [1]; […]
  Expression of intracellular TNF-alpha, Mean ± S.E: 1.84 ± 0.03
TNF-α [2]
  Level of serum TNF-α: significant reduction
